From patent US10329309B2, “3-(3H-imidazo[4,5-B]pyridin-2-yl)-1H-pyrazolo[4,3-B]pyridines and therapeutic uses thereof” (Samumed, LLC, priority 2015, dated 2019)

Key:
Type in all cases: cell-based
SW480 colon cancer cells = assay: Cell viability assay (CellTiter-Blue), four days; conditions: Homo sapiens, 96 h, CellTiter-Blue cell viability
Outline: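 SW480 cells (~2×10^3 per well) were exposed to compound for four days at 37 °C/5% CO2, using 8-point 1:3 dilutions from 10 μM to 0.0045 μM in duplicate. Viability was read by resazurin reduction (CellTiter-Blue, ~3 h, Ex 560/Em 590 nm). EC50 came from non-linear regression; above 10 μM, percent inhibition at 10 μM is given.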

[1] = system: primary human mesenchymal stem cells (hMSCs); assay: Induction of chondrogenesis in primary human mesenchymal stem cells (nodule imaging, Rhodamine B/Nile Red); conditions: hMSC chondrogenesis; for Emax: TGF-β3 as positive control, read-out: Max. Activity as % TGF-β3 activity; for EC50: concentration required to induce 50% levels of chondrogenesis vs TGF-β3, read-out: Conc (nM) of 50% TGF-β3 activity
Outline: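 hMSCs (passage 3–6) in incomplete chondrogenic induction medium were dosed at 2700–10 nM (96-well, 6-point) or 5000–2.2 nM (384-well, 8-point), 0.03% DMSO final, for 6 days at 37° C. Fixed nodules stained with Rhodamine B/Nile Red were imaged; nodule area normalized to DMSO wells gave EC50, maximum activity and dose at maximum, with TGF-β3 (10 ng/mL) as positive control.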

[2] = system: Wnt activity (Sp5-Luc reporter, SW480 colon carcinoma cells); assay: Screening assay for Wnt activity: Sp5-Luc reporter gene assay in SW480 cells; conditions: Homo sapiens, overnight incubation, 10-point dose-response from 10 μM
Outline: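 SW480 cells stably carrying Sp5-Luc reporter (eight TCF/LEF sites) plated at 4,000/well in 1% FBS medium with compound (10-point 1:3 series from 10 μM, 0.1% DMSO) overnight at 37 °C. BrightGlo luminescence normalized to DMSO; EC50 by four-parameter fit, else % inhibition at 10 μM.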

SMILES	EC50 (SW480 colon cancer cells) [nM]	EC50 [1] [nM]	EC50 [2] [nM]	Emax [1] [%]
Cc1ccc(-c2ccnc3[nH]c(-c4n[nH]c5ccc(-c6cncc(N)c6)nc45)nc23)s1 [Compound 395, 5-(3-(7-(5-methylthiophen-2-yl)-3H-imidazo[4,5-b]pyridin-2-yl)-1H-pyrazolo[4,3-b]pyridin-5-yl)pyridin-3-amine]	84	100	47	118
FC1(F)CCN(Cc2cncc(-c3ccc4[nH]nc(-c5nc6c(-c7ccsc7)ccnc6[nH]5)c4n3)c2)C1 [Compound 306, 5-(5-((3,3-difluoropyrrolidin-1-yl)methyl)pyridin-3-yl)-3-(7-(thiophen-3-yl)-3H-imidazo[4,5-b]pyridin-2-yl)-1H-pyrazolo[4,3-b]pyridine]	580	30	533	77
CC(C)Nc1cncc(-c2ccc3[nH]nc(-c4nc5c(-c6cc(F)cc(NCCN(C)C)c6)ccnc5[nH]4)c3n2)c1 [Compound 460, N^1-(3-fluoro-5-(2-(5-(5-(isopropylamino)pyridin-3-yl)-1H-pyrazolo[4,3-b]pyridin-3-yl)-3H-imidazo[4,5-b]pyridin-7-yl)phenyl)-N^2,N^2-dimethylethane-1,2-diamine]	695	30	1180	63

More lines, main results first:

EC50 (SW480 colon cancer cells) [nM]	EC50 [1] [nM]	EC50 [2] [nM]	SMILES	Emax [1] [%]
1100	–	2800	COc1cccc(-c2ccnc3[nH]c(-c4n[nH]c5ccc(-c6cncc(NC(=O)Cc7ccccc7)c6)nc45)nc23)c1 [Compound 1000, N-(5-(3-(7-(3-methoxyphenyl)-3H-imidazo[4,5-b]pyridin-2-yl)-1H-pyrazolo[4,3-b]pyridin-5-yl)pyridin-3-yl)-2-phenylacetamide]	46
897	100	1870	COc1cccc(-c2ccnc3[nH]c(-c4n[nH]c5ccc(-c6cccnc6)nc45)nc23)c1 [Compound 994, 3-(7-(3-methoxyphenyl)-3H-imidazo[4,5-b]pyridin-2-yl)-5-(pyridin-3-yl)-1H-pyrazolo[4,3-b]pyridine]	50
